# Results published in patent US11590116B2 (THERAVANCE BIOPHARMA R&D IP, LLC, priority 2019, dated 2023).
# Tests used:
# [1] = biological target: T1, recombinant human ALK5 (TGF-βR1) protein (Homo sapiens, UniProt P36897); experiment: Biochemical ALK5 (TGF-βR1) assay to measure pKi (LANCE Ultra ULight kinase assay); conditions: apparent pKi from pIC50 by Cheng-Prusoff, read-out: ALK5 pKi (converted)
# T1 construct: purchased Life Technologies PR9075A
# T1 sequence (P36897 34-503): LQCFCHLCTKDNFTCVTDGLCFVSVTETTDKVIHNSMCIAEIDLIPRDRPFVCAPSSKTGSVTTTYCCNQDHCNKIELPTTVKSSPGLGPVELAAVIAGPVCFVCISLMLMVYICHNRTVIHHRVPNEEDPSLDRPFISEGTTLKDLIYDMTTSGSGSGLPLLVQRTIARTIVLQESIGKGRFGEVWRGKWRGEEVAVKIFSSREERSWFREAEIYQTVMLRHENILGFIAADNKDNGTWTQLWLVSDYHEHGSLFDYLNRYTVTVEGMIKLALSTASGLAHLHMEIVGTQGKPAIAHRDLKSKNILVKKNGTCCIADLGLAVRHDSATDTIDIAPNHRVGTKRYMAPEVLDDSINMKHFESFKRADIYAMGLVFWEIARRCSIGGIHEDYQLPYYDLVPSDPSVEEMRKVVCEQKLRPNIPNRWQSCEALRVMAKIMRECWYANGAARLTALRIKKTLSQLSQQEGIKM
# Summary of the method: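 After a 60 min room-temperature preincubation of ALK5 with compound, phosphorylation proceeds 60 min at 37 °C on ATP addition (125 μM as 5× stock). Detection: Eu-labelled phospho-Thr1342 Topo IIα antibody in EDTA buffer, pH 7.0; emission 665 nm.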
# [2] = system: TGF-β-stimulated SMAD3 phosphorylation in BEAS-2B cells; experiment: Cellular ALK5 potency assay, inhibition of TGF-β stimulated pSMAD3 formation in BEAS-2B cells; format: cell-based; conditions: Homo sapiens; inhibition of TGF-β stimulated pSMAD3 formation, BEAS-2B cells; read-out: BEAS2B pIC50 (converted)
# Summary of the method: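 BEAS-2B human lung epithelial cells, seeded overnight, were pre-treated with compound in HBSS/25 mM HEPES/1% BSA for 1 h at 37 °C, then stimulated with TGF-β (final 10 ng/mL) for 30 min. Lysates were assayed for pSMAD3 by AlphaLISA; pIC50 came from dose-dependent signal change versus TGF-β-stimulated untreated cells.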
Structure (SMILES),Ki [1],IC50 [2]
"Cc1cccc(-c2c(-c3ccc4ncc(NCCN5CCN(C(C)C)CC5)cc4c3)nnn2Cc2ccccc2)n1 [Compound 351, 6-[1-benzyl-5-(6-methyl-2-pyridyl)triazol-4-yl]-N-[2-(4-isopropylpiperazin-1-yl)ethyl]quinolin-3-amine]",3.98 to 31.6 nM,200 to 1260 nM
"Cc1cccc(-c2[nH]ncc2-c2ccc3ncc(C(=O)N4CC(N5CCOCC5)C4)cc3n2)n1 [Compound 352, [6-[5-(6-methyl-2-pyridyl)-1H-pyrazol-4-yl]-1,5-naphthyridin-3-yl]-(3-morpholinoazetidin-1-yl)methanone]",3.98 to 31.6 nM,200 to 1260 nM
Cc1cccc(-c2n[nH]cc2-c2ccc3ncc(-c4cn[nH]c4)c(C4CCCN4)c3c2)n1 (stereo not shown) [Compound 356],0.0398 to 0.316 nM,200 to 1260 nM
"Cc1cccc(-c2n[nH]cc2-c2ccc3ncc(NC(=O)CCCN4CCOCC4)cc3n2)n1 [Compound 358, N-[6-[3-(6-methyl-2-pyridyl)-1H-pyrazol-4-yl]-1,5-naphthyridin-3-yl]-4-morpholino-butanamide]",0.0398 to 0.316 nM,25.1 to 158 nM
"Cc1cccc(-c2nnn(Cc3ccccc3)c2-c2ccc3ncc(N4CCNCC4)cc3n2)n1 [Compound 359, 2-(1-benzyl-4-(6-methylpyridin-2-yl)-1H-1,2,3-triazol-5-yl)-7-(piperazin-1-yl)-1,5-naphthyridine]",0.0398 to 0.316 nM,25.1 to 158 nM
"Cc1cccc(-c2c(-c3ccc4ncc(N5CCCNCC5)cc4c3)nnn2Cc2ccccc2)n1 [Compound 360, 6-[1-benzyl-5-(6-methyl-2-pyridyl)triazol-4-yl]-3-(1,4-diazepan-1-yl)quinoline]",0.398 to 3.16 nM,1580 to 10000 nM
"Cc1cccc(-c2[nH]ncc2-c2ccc3ncc(C(=O)OCCN4CCCC4)cc3n2)n1 [Compound 361, 2-pyrrolidin-1-ylethyl 6-[5-(6-methyl-2-pyridyl)-1H-pyrazol-4-yl]-1,5-naphthyridine-3-carboxylate]",0.398 to 3.16 nM,25.1 to 158 nM
"Cc1cccc(-c2nc3ccccn3c2-c2ccc3ncc(N4CCCNCC4)cc3c2)n1 [Compound 363, 3-(1,4-diazepan-1-yl)-6-[2-(6-methyl-2-pyridyl)imidazo[1,2-a]pyridin-3-yl]quinoline]",0.0398 to 0.316 nM,25.1 to 158 nM
"Cc1cccc(-c2[nH]cnc2-c2ccc3ncc(Nc4ccc(N5CCN(C(C)C)CC5)cn4)cc3c2)n1 [Compound 365, N-[5-(4-isopropylpiperazin-1-yl)-2-pyridyl]-6-[5-(6-methyl-2-pyridyl)-1H-imidazol-4-yl]quinolin-3-amine]",0.0398 to 0.316 nM,25.1 to 158 nM
"Cc1cccc(-c2[nH]cnc2-c2ccc3ncc(-c4ccccn4)cc3c2)n1 [Compound 367, 6-[5-(6-methyl-2-pyridyl)-1H-imidazol-4-yl]-3-(2-pyridyl)quinoline]",0.0398 to 0.316 nM,25.1 to 158 nM
"COC(=O)c1cccc(-c2cnc3ccc(-c4c[nH]nc4-c4cccc(C)n4)nc3c2)c1 [Compound 369, methyl 3-[6-[3-(6-methyl-2-pyridyl)-1H-pyrazol-4-yl]-1,5-naphthyridin-3-yl]benzoate]",< 0.0316 nM,< 20 nM
"Cc1cccc(-c2[nH]cnc2-c2ccc3ncc(C4=CC[C@H](NC(=O)C5CCNCC5)CC4)cc3c2)n1 [Compound 370, N-[(1R)-4-[6-[5-(6-methyl-2-pyridyl)-1H-imidazol-4-yl]-3-quinolyl]cyclohex-3-en-1-yl]piperidine-4-carboxamide]",0.0398 to 0.316 nM,1580 to 10000 nM
"COc1[nH]nc(-c2cccc(C)n2)c1-c1ccc2ncc(-c3cnn4c3NCC4)cc2n1 [Compound 371, 7-(2,3-dihydro-1H-imidazo[1,2-b]pyrazol-7-yl)-2-[5-methoxy-3-(6-methyl-2-pyridyl)-1H-pyrazol-4-yl]-1,5-naphthyridine]",0.398 to 3.16 nM,200 to 1260 nM
"Cc1cccc(-c2n[nH]cc2-c2ccc3ncc(CCC(=O)N4CCN(C(C)C)CC4)cc3n2)n1 [Compound 372, 1-(4-isopropylpiperazin-1-yl)-3-[6-[3-(6-methyl-2-pyridyl)-1H-pyrazol-4-yl]-1,5-naphthyridin-3-yl]propan-1-one]",0.398 to 3.16 nM,25.1 to 158 nM
"Cc1cccc(-c2nnn(Cc3ccccc3)c2-c2ccc3ncc(NCCN4CCN(C(C)C)CC4)cc3n2)n1 [Compound 373, 6-(1-benzyl-4-(6-methylpyridin-2-yl)-1H-1,2,3-triazol-5-yl)-N-(2-(4-isopropylpiperazin-1-yl)ethyl)-1,5-naphthyridin-3-amine]",0.0398 to 0.316 nM,200 to 1260 nM
"CNC(=O)[C@H]1CN(c2cnc3ccc(-c4nc[nH]c4-c4cccc(C)n4)cc3c2)CCN1 [Compound 376, (2R)-N-methyl-4-[6-[5-(6-methyl-2-pyridyl)-1H-imidazol-4-yl]-3-quinolyl]piperazine-2-carboxamide]",0.0398 to 0.316 nM,200 to 1260 nM
"CC(=O)N[C@@H]1CC=C(c2cnc3ccc(-c4nc[nH]c4-c4cccc(C)n4)cc3c2)CC1 [Compound 380, N-[(1S)-4-[6-[5-(6-methyl-2-pyridyl)-1H-imidazol-4-yl]-3-quinolyl]cyclohex-3-en-1-yl]acetamide]",< 0.0316 nM,< 20 nM
"Cc1nc(-c2n[nH]cc2-c2ccc3ncc(NCCN4CCCC4)cc3n2)ccc1F [Compound 381, 6-[3-(5-fluoro-6-methyl-2-pyridyl)-1H-pyrazol-4-yl]-N-(2-pyrrolidin-1-ylethyl)-1,5-naphthyridin-3-amine]",< 0.0316 nM,25.1 to 158 nM

# Second part, led by results:
Ki [1],Structure (SMILES),IC50 [2]
0.0398 to 0.316 nM,"Cc1cccc(-c2n[nH]cc2-c2ccc3ncc(NC(=O)CN4CCOCC4)cc3n2)n1 [Compound 353, N-[6-[3-(6-methyl-2-pyridyl)-1H-pyrazol-4-yl]-1,5-naphthyridin-3-yl]-2-morpholino-acetamide]",25.1 to 158 nM
< 0.0316 nM,"Cc1cccc(-c2n[nH]cc2-c2ccc3ncc(-c4c[nH]nn4)cc3n2)n1 [Compound 355, 2-[3-(6-methyl-2-pyridyl)-1H-pyrazol-4-yl]-7-(1H-triazol-4-yl)-1,5-naphthyridine]",< 20 nM
< 0.0316 nM,"Cc1cccc(-c2n[nH]cc2-c2ccc3ncc(N(C)CC4CNC4)cc3n2)n1 [Compound 357, N-(azetidin-3-ylmethyl)-N-methyl-6-[3-(6-methyl-2-pyridyl)-1H-pyrazol-4-yl]-1,5-naphthyridin-3-amine]",25.1 to 158 nM
0.0398 to 0.316 nM,"Cc1cccc(-c2n[nH]cc2-c2ccc3ncc(N4CCn5nc(C6=CCNC6)nc5C4)cc3n2)n1 [Compound 362, 7-[2-(2,5-dihydro-1H-pyrrol-3-yl)-6,8-dihydro-5H-[1,2,4]triazolo[1,5-a]pyrazin-7-yl]-2-[3-(6-methyl-2-pyridyl)-1H-pyrazol-4-yl]-1,5-naphthyridine]",200 to 1260 nM
0.0398 to 0.316 nM,"CNC1CCN(c2cnc3ccc(-c4c[nH]nc4-c4cccc(C(C)C)n4)nc3c2)CC1 [Compound 364, 1-[6-[3-(6-isopropyl-2-pyridyl)-1H-pyrazol-4-yl]-1,5-naphthyridin-3-yl]-N-methyl-piperidin-4-amine]",25.1 to 158 nM
0.0398 to 0.316 nM,"Cc1cccc(-c2n[nH]cc2-c2ccc3ncc(-c4c(C)n[nH]c4C)cc3n2)n1 [Compound 366, 7-(3,5-dimethyl-1H-pyrazol-4-yl)-2-[3-(6-methyl-2-pyridyl)-1H-pyrazol-4-yl]-1,5-naphthyridine]",200 to 1260 nM
< 0.0316 nM,"Cc1cccc(-c2n[nH]cc2-c2ccc3ncc(N4CC(N(C)C)C4)cc3n2)n1 [Compound 368, N,N-dimethyl-1-[6-[3-(6-methyl-2-pyridyl)-1H-pyrazol-4-yl]-1,5-naphthyridin-3-yl]azetidin-3-amine]",25.1 to 158 nM
< 0.0316 nM,"Cc1cccc(-c2n[nH]cc2-c2ccc3ncc(-c4ccc(O)nc4)cc3n2)n1 [Compound 374, 5-[6-[3-(6-methyl-2-pyridyl)-1H-pyrazol-4-yl]-1,5-naphthyridin-3-yl]pyridin-2-ol]",25.1 to 158 nM
0.0398 to 0.316 nM,"Cc1cccc(-c2n[nH]cc2-c2ccc3ncc(NCC4CCCCN4)cc3n2)n1 (stereo not shown) [Compound 375, 6-[3-(6-methyl-2-pyridyl)-1H-pyrazol-4-yl]-N-(2-piperidylmethyl)-1,5-naphthyridin-3-amine]",25.1 to 158 nM
< 0.0316 nM,"CCc1cccc(-c2n[nH]cc2-c2ccc3ncc(N4CCC(NC)CC4)cc3n2)n1 [Compound 377, 1-[6-[3-(6-ethyl-2-pyridyl)-1H-pyrazol-4-yl]-1,5-naphthyridin-3-yl]-N-methyl-piperidin-4-amine]",25.1 to 158 nM
0.0398 to 0.316 nM,"Cc1cccc(-c2n[nH]cc2-c2ccc3ncc(C(=O)NCCN4CCN(C(C)C)CC4)cc3n2)n1 [Compound 378, N-[2-(4-isopropylpiperazin-1-yl)ethyl]-6-[3-(6-methyl-2-pyridyl)-1H-pyrazol-4-yl]-1,5-naphthyridine-3-carboxamide]",25.1 to 158 nM
